These results are taken from PMC8536682, “NPF activates a specific NPF receptor and regulates food intake in Pacific abalone Haliotis discus hannai” (Scientific Reports, 2021).

The EC50 is the concentration needed to bring the measured effect to its halfway point. Read a low EC50 as an effect from little substance.

Experiment [1] relates to Hdh-NPFR. Briefly: Western blot of ERK1/2 phosphorylation in Hdh-NPFR-expressing HEK293 cells. It counts as cell-based, Haliotis discus hannai. The settings on record: inhibitor 10^–5 M pre-incubated 1 h, then Hdh-NPF (10^–8, 10^–6 M) 5 min; Fig. 3f. The protocol:
HEK293 cells were seeded into 6-well plates (0.3 × 10^6 cells/well) and transfected with 3 μg of pcDNA3-HA-Hdh-NPFR or pcDNA3 as described for the reporter assays. At 36 h post-transfection, the transfected cells were treated with Hdh-NPF (10^–9–10^–7 M), TPA (10^–7 M), or the same volume of peptide-free medium as a vehicle for 10 min. After washing twice with PBS, the cells were lysed with RIPA buffer [150 mM NaCl, 1% Triton X-100, 0.5% sodium deoxycholate, 0.1% sodium dodecyl sulfate (SDS), 50 mM Tris–Cl, pH 8.0] including protease inhibitor cocktail and PhosSTOP (Roche, Basel, Switzerland) according to the manufacturer’s recommendation. To examine signaling pathways, Hdh-NPFR-transfected cells were pre-incubated with serum-free DMEM for 6 h at 37 °C and exposed to a PKA inhibitor (H89, 10^–5 M; Sigma-Aldrich) or PKC inhibitor (Gӧ6983, 10^–5 M; Sigma-Aldrich) for a further 60 min. After replacing the medium with fresh serum-free DMEM, the cells were exposed to Hdh-NPF peptide (10^–8, 10^–6 M) for 5 min at 37 °C. The cell lysates were separated by 10% SDS–polyacrylamide gel electrophoresis and subsequently transferred to nitrocellulose membranes (Pall, Ann Arbor, MI, USA). […] The reactive bands were monitored using C-Digit 3600 Bolt Scanner (LI-COR, Lincoln, NE, USA).
For orientation: In western blotting, separated proteins are transferred to a membrane and probed.

The test system of experiment [2] is Hdh-NPFR. In words: Ca2+ mobilization (aequorin luminescence) assay in Hdh-NPFR-transfected CHO-K1 cells. It counts as cell-based, Haliotis discus hannai. To be noted: Fig. 3g, Fig. S7b. The method, then: CHO-K1 cells were maintained in DMEM-F12 Nutrient Mixture Ham supplemented with 10% FBS (Welgene) at 37 °C in 5% CO2. Cells grown in a monolayer to 60% confluency in 100 mm dishes (1.5 × 10^6 cells) were transiently transfected with plasmids using FuGENE6 transfection reagent (Promega), according to the manufacturer’s recommendations. In brief, the transfection medium was prepared by combining 600 μl of DMEM-F12 with 2 μg of pcDNA3-HA-Hdh-NPFR plasmid together with 2 μg of a Ca^2+ reporter aequorin plasmid with or without the promiscuous Gα15 expression plasmid (kind gifts from Dr. Young-Joon Kim, Gwangju Institute of Science and Technology, Gwangju, Korea) with 18 μl of FuGENE6 in a 5 ml polystyrene tube and incubated for 25 min at room temperature. The transfection mixture was added to CHO-K1 cells in 10 ml of fresh FBS-free medium and the cells were incubated at 37 °C in 5% CO2 overnight. On the day of the assay, the cells were detached from the culture dish by incubating with 3 ml of 5 mM EDTA in phosphate-buffered saline (PBS, pH 7.2; Thermo Fisher Scientific, Waltham, MA, USA) for 5 min. The cells were washed in 10 ml of phenol red-free DMEM/F-12 with 0.1% bovine serum albumin (BSA) and 1% P/S (DMEM-prf), and collected by brief centrifugation. Probenecid (1.25 mM final concentration, Invitrogen) and coelenterazine (5 μM, Gold Biotech., St. Louis, MO, USA) were added to resuspended CHO-K1 cells in 5 ml of DMEM-prf medium and the cells were gently agitated for 2.5 h using a magnetic stirrer at room temperature shielded from light. The cell suspension was diluted four times with DMEM-prf and incubated for a further 30 min. Just before the Ca^2+ mobilization assay, peptide solutions were prepared in DMEM-prf and 50 μl aliquots were dispensed into 3 or 4 wells/peptide on 96-well microplates. DMEM-prf was used as a negative control. While stirring gently, 50 μl of the cell suspension was injected into a luminescence microplate reader (Berthold Tech.) using an automated injector unit. Luminescence was recorded for 20 s and for a further 10 s after injection of DMEM-prf including 0.2% Triton X-100 to measure the total Ca^2+ response. The average luminescence from multiple replicate wells for a single concentration was calculated and normalized to the largest receptor response after subtraction of background values obtained from negative controls. Dose–response curves and EC50 values were obtained using Sigma Plot v.13 (Systat Software, Inc., San Jose, CA, USA).

In experiment [3] the test system is pcDNA3-transfected HEK293 cells. In words: CRE-Luc luciferase reporter assay in pcDNA3-transfected HEK293 cells. Type of experiment: cell-based, human. The settings on record: pcDNA3-transfected HEK293 cells (no receptor); Fig. 3d. The protocol: HEK293 cells were cultured in Dulbecco’s modified Eagle medium (DMEM; Gibco, Loughborough, UK) containing 1% penicillin/streptomycin (P/S; Invitrogen) and 10% fetal bovine serum (FBS; Hyclone, GE Healthcare, Chicago, IL, USA). Sixteen hours before transfection, cultured HEK293 cells were seeded into 24-well plates (5 × 10^4 cells/well). The cells were transfected with a luciferase reporter plasmid of CRE-Luc[68] or SRE-Luc[69] using a polyethyleneimine transfection reagent (Sigma-Aldrich, St. Louis, MO, USA), along with pcDNA3-HA plasmids containing Hdh-NPFR-related receptors, human NPYR1 and NPYR2 (kindly provided by Dr. Annette G. Beck-Sickinger, Leipzig University, Germany), and a pRSV-β-galactosidase expression plasmid as an internal control (100 ng of each plasmid/well) as previously reported. After 3 h of transfection, the culture medium was replaced by new DMEM with 1% P/S and 10% FBS, and the HEK293 cells were further cultured for 30 h and then maintained in DMEM without FBS for 16 h. […] The cells were lysed with a luciferase cell culture lysis buffer (Promega, Madison, WI, USA) and luciferase activities were analyzed using a microplate-luminometer (Berthold Tech., Bad Wildbad, Germany) and normalized by the β-galactosidase values detected by an absorbance microplate reader (Tecan, Mannedorf, Switzerland) at 405 nm.
On the technique in general: In a reporter assay the amount or activity of a reporter protein is the signal.

No end group written: not given here.

On to `COc1ccc2c(c1)c(C1=C(c3c[nH]c4ccccc34)C(=O)NC1=O)cn2CCCN(C)C` [Gӧ6983], for which the “Effect of inhibitor on Hdh-NPFR-mediated activation of ERK1/2” value in experiment [1] is recorded as “abolished”.

For the compound “QDAMLAPPDRPSEFRSPD-NH2 [Hdh-NPF-N18, truncated Hdh-NPF peptide]”, in experiment [2], the “Ca2+ mobilization response” value is recorded as “could not induce”.

For the compound “QDAMLAPPDRPSEFRSPDQLRQYLKALNEYYAIVGRPRF-NH2 [Hdh-NPF]”, the 50% effective concentration (EC50) in experiment [3] was 596 nM.

Regarding “QLRQYLKALNEYYAIVGRPRF-NH2 [Hdh-NPF-C21, truncated Hdh-NPF peptide]”, the “Ca2+ mobilization response” value in experiment [2] is “could not induce”.

On to “YAIVGRPRF-NH2 [Hdh-NPF-C9, truncated Hdh-NPF peptide]”, for which, in experiment [2], the “Ca2+ mobilization response” value is “could not induce”.

On to “YPSKPDNPGEDAPAEQLRQYLKALNEYYAIVGRPRF-NH2 [NPY-F, chimeric mixed peptide for Hdh-NPF and human NPY]”, for which the “Ca2+ mobilization response” value in experiment [2] is “could not activate”.
